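Briefly, cells in 96-well plates were exposed to five compound concentrations for 48 h, and endpoints were estimated by linear interpolation. The concentration for 50% growth inhibition is given as GI50. TGI marks complete inhibition of growth.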
Tests used:
Assay in all cases: inhibition of tumour cell growth, NCI panel, 48 h
[1] = tested on: BT-549 breast
[2] = tested on: CCRF-CEM leukemia
[3] = tested on: 786-0 renal
[4] = tested on: HT29 colon
[5] = tested on: SR leukemia
[6] = tested on: SK-MEL-5 melanoma
[7] = tested on: EKVX NSCLC
[8] = tested on: SF-539 CNS
[9] = tested on: RPMI-8226 leukemia
[10] = tested on: ACHN renal
[11] = tested on: CAKI-1 renal
[12] = tested on: A549 NSCLC
[13] = tested on: RXF 393 renal
[14] = tested on: KM12 colon
[15] = tested on: NCI-H522 lung
[16] = tested on: OVCAR-4 ovarian
[17] = tested on: NCI/ADR-RES ovarian
[18] = tested on: HL-60(TB) leukemia
[19] = tested on: SNB-19 CNS
[20] = tested on: U251 CNS
[21] = tested on: NCI-H226 lung
[22] = tested on: PC-3 prostate
[23] = tested on: UACC-257 melanoma
[24] = tested on: HOP-62 NSCLC
[25] = tested on: HCC-2998 colon
[26] = tested on: UACC-62 melanoma
[27] = tested on: MALME-3M melanoma
[28] = tested on: SNB-75 CNS
[29] = tested on: HCT-116 colon
[30] = tested on: SW-620 colon
[31] = tested on: SN12C renal
[32] = tested on: SK-MEL-28 melanoma
[33] = tested on: T-47D breast
[34] = tested on: IGROV1 ovarian
[35] = tested on: LOX IMVI melanoma
[36] = tested on: TK-10 renal
[37] = tested on: OVCAR-8 ovarian
[38] = tested on: DU-145 prostate
[39] = tested on: SF-295 CNS
[40] = tested on: MDA-MB-231 breast
[41] = tested on: UO-31 renal
[42] = tested on: HS 578T breast
[43] = tested on: NCI-H23 lung
[44] = tested on: MDA-MB-435
[45] = tested on: MOLT-4 leukemia
[46] = tested on: OVCAR-3 ovarian
[47] = tested on: OVCAR-5 ovarian
[48] = tested on: HOP-92 NSCLC
[49] = tested on: M14 melanoma
[50] = tested on: NCI-H460 lung
[51] = tested on: COLO 205 colon
[52] = tested on: HCT-15 colon
[53] = tested on: SF-268 CNS
[54] = tested on: SK-MEL-2 melanoma
[55] = tested on: K-562 leukemia
[56] = tested on: SK-OV-3 ovarian
[57] = tested on: MCF7 breast
[58] = tested on: A498 renal

**Q.** Which TGI [1] does the source give for O=C(ON=c1c2ccccc2ccc2ccccc12)c1ccccc1 here?
**A.** 64.2 µM

**Q.** What about the TGI [2] of the same compound?
**A.** > 76 µM

**Q.** And the TGI [3]?
**A.** > 62.4 µM

**Q.** What about the TGI [4] of the same compound?
**A.** > 74.2 µM

**Q.** What about the TGI [5] of the same compound?
**A.** 32.4 µM

**Q.** What about the TGI [6] of the same compound?
**A.** 29.8 µM

**Q.** And the TGI [7]?
**A.** 96.9 µM

**Q.** And the TGI [8]?
**A.** 32.8 µM

**Q.** What about the TGI [9] of the same compound?
**A.** 73.5 µM

**Q.** And the TGI [10]?
**A.** > 100 µM

**Q.** What about the TGI [11] of the same compound?
**A.** 79 µM

**Q.** And the TGI [12]?
**A.** > 92.7 µM

**Q.** What about the TGI [13] of the same compound?
**A.** 23.6 µM

**Q.** What about the TGI [14] of the same compound?
**A.** 35.6 µM

**Q.** And the TGI [15]?
**A.** 47.3 µM

**Q.** What about the TGI [16] of the same compound?
**A.** > 89.1 µM

**Q.** And the TGI [17]?
**A.** 56.3 µM

**Q.** What about the TGI [18] of the same compound?
**A.** 29.5 µM

**Q.** And the TGI [19]?
**A.** > 84.1 µM

**Q.** What about the TGI [20] of the same compound?
**A.** 39 µM

**Q.** What about the TGI [21] of the same compound?
**A.** 57.9 µM

**Q.** What about the TGI [22] of the same compound?
**A.** > 93 µM

**Q.** And the TGI [23]?
**A.** 93.4 µM

**Q.** What about the TGI [24] of the same compound?
**A.** 59 µM

**Q.** What about the TGI [25] of the same compound?
**A.** > 87.7 µM

**Q.** What about the TGI [26] of the same compound?
**A.** 30.5 µM

**Q.** What about the TGI [27] of the same compound?
**A.** 50.5 µM

**Q.** What about the TGI [28] of the same compound?
**A.** 99.7 µM

**Q.** What about the TGI [29] of the same compound?
**A.** 34.1 µM

**Q.** What about the TGI [30] of the same compound?
**A.** 43.3 µM

**Q.** What about the TGI [31] of the same compound?
**A.** > 68.9 µM

**Q.** What about the TGI [32] of the same compound?
**A.** 56.3 µM

**Q.** And the TGI [33]?
**A.** 91.4 µM

**Q.** And the TGI [34]?
**A.** > 67.3 µM

**Q.** And the TGI [35]?
**A.** > 62.1 µM

**Q.** What about the TGI [36] of the same compound?
**A.** > 100 µM

**Q.** What about the TGI [37] of the same compound?
**A.** > 67.7 µM

**Q.** And the TGI [38]?
**A.** > 100 µM

**Q.** What about the TGI [39] of the same compound?
**A.** > 73.4 µM

**Q.** And the TGI [40]?
**A.** > 65.2 µM

**Q.** And the TGI [41]?
**A.** 57.4 µM

**Q.** And the TGI [42]?
**A.** 59.9 µM

**Q.** And the TGI [43]?
**A.** > 100 µM

**Q.** What about the TGI [44] of the same compound?
**A.** 42.7 µM

**Q.** And the TGI [45]?
**A.** 16.2 µM

**Q.** And the TGI [46]?
**A.** 62.1 µM

**Q.** What about the TGI [47] of the same compound?
**A.** > 100 µM

**Q.** And the TGI [48]?
**A.** 67.5 µM

**Q.** What about the TGI [49] of the same compound?
**A.** 33.5 µM

**Q.** What about the TGI [50] of the same compound?
**A.** > 80.4 µM

**Q.** What about the TGI [51] of the same compound?
**A.** 35.7 µM

**Q.** And the TGI [52]?
**A.** > 95.9 µM

**Q.** And the TGI [53]?
**A.** > 86 µM

**Q.** What about the TGI [54] of the same compound?
**A.** > 58 µM

**Q.** And the TGI [55]?
**A.** > 58.1 µM

**Q.** And the TGI [56]?
**A.** > 91.1 µM

**Q.** And the TGI [57]?
**A.** 45.5 µM

**Q.** What about the TGI [58] of the same compound?
**A.** 50.3 µM

**Q.** Which results are given for O=C1NC(=O)/C(=C/c2c(Cl)nc3sccn23)S1?
**A.** GI50 [1]: > 84.5 µM; TGI [1]: > 100 µM; GI50 [2]: 71.2 µM; TGI [2]: > 100 µM; GI50 [3]: > 85.8 µM; TGI [3]: > 100 µM; GI50 [4]: > 100 µM; TGI [4]: > 100 µM; GI50 [5]: 37.6 µM; TGI [5]: > 100 µM; GI50 [6]: 35.5 µM; TGI [6]: > 100 µM; GI50 [7]: > 66.1 µM; TGI [7]: > 100 µM; GI50 [8]: > 31.8 µM; TGI [8]: > 83.8 µM; GI50 [9]: 36.1 µM; TGI [9]: > 100 µM; GI50 [10]: > 100 µM; TGI [10]: > 100 µM; GI50 [11]: > 100 µM; TGI [11]: > 100 µM; GI50 [12]: > 100 µM; TGI [12]: > 100 µM; GI50 [13]: > 65.7 µM; TGI [13]: > 100 µM; GI50 [14]: > 100 µM; TGI [14]: > 100 µM; GI50 [15]: > 100 µM; TGI [15]: > 100 µM; GI50 [16]: > 100 µM; TGI [16]: > 100 µM; GI50 [17]: > 100 µM; TGI [17]: > 100 µM; GI50 [18]: > 100 µM; TGI [18]: > 100 µM; GI50 [19]: > 79.1 µM; TGI [19]: > 100 µM; GI50 [20]: > 81.1 µM; TGI [20]: > 100 µM; GI50 [21]: 14.2 µM; TGI [21]: > 100 µM; GI50 [22]: > 87.7 µM; TGI [22]: > 100 µM; GI50 [23]: > 91.9 µM; TGI [23]: > 100 µM; GI50 [24]: > 100 µM; TGI [24]: > 100 µM; GI50 [25]: > 100 µM; TGI [25]: > 100 µM; GI50 [26]: 42.3 µM; TGI [26]: > 100 µM; GI50 [27]: > 59.7 µM; TGI [27]: > 100 µM; GI50 [28]: > 100 µM; TGI [28]: > 100 µM; GI50 [29]: 80.4 µM; TGI [29]: > 100 µM; GI50 [30]: > 100 µM; TGI [30]: > 100 µM; GI50 [31]: > 51.5 µM; TGI [31]: > 100 µM; GI50 [32]: > 82.4 µM; TGI [32]: > 100 µM; GI50 [33]: 31.3 µM; TGI [33]: > 75.8 µM; GI50 [34]: > 100 µM; TGI [34]: > 100 µM; GI50 [35]: 57 µM; TGI [35]: > 100 µM; GI50 [36]: > 57.6 µM; TGI [36]: > 100 µM; GI50 [37]: > 100 µM; TGI [37]: > 100 µM; GI50 [38]: > 100 µM; TGI [38]: > 100 µM; GI50 [39]: 64.4 µM; TGI [39]: > 100 µM; GI50 [40]: 28.7 µM; TGI [40]: > 100 µM; GI50 [41]: > 100 µM; TGI [41]: > 100 µM; GI50 [42]: 30.9 µM; TGI [42]: > 100 µM; GI50 [43]: > 56.4 µM; TGI [43]: > 100 µM; GI50 [44]: 97.3 µM; TGI [44]: > 100 µM; GI50 [45]: > 100 µM; TGI [45]: > 100 µM; GI50 [46]: > 70.9 µM; TGI [46]: > 100 µM; GI50 [47]: > 74.6 µM; TGI [47]: > 100 µM; GI50 [48]: 20.9 µM; TGI [48]: > 100 µM; GI50 [49]: 66.4 µM; TGI [49]: > 100 µM; GI50 [50]: > 75.8 µM; TGI [50]: > 100 µM; GI50 [51]: > 86.6 µM; TGI [51]: > 100 µM; GI50 [52]: > 74.9 µM; TGI [52]: > 100 µM; GI50 [53]: > 57.1 µM; TGI [53]: > 100 µM; GI50 [54]: > 100 µM; TGI [54]: > 100 µM; GI50 [55]: 68.9 µM; TGI [55]: > 100 µM; GI50 [56]: > 70.1 µM; TGI [56]: > 100 µM; GI50 [57]: > 65.4 µM; TGI [57]: > 100 µM; GI50 [58]: 1.01 µM; TGI [58]: 46.1 µM

Source: PubChem BioAssay (NCI)
